Key:
Assay in all cases: BIO3-BIO1 mutant enzyme activity in the presence of herbicide, percentage inhibition (fluorometric DAPA assay)
Type in all cases: biochemical
Conditions in all cases: read-out: percentage inhibition
[1] = molecular target: T1, Arabidopsis thaliana BIO3-BIO1 (BioDA) mutants (Arabidopsis thaliana, UniProt B0F481, S509C)
T1 construct: with the predicted N-terminal mitochondrial transit peptide removed; 6xHis-tag (N); thrombin cleavage site (N); made in house; host or cells: E. coli BL21 (DE3) bioA
T1 sequence (B0F481 23-833 S509C): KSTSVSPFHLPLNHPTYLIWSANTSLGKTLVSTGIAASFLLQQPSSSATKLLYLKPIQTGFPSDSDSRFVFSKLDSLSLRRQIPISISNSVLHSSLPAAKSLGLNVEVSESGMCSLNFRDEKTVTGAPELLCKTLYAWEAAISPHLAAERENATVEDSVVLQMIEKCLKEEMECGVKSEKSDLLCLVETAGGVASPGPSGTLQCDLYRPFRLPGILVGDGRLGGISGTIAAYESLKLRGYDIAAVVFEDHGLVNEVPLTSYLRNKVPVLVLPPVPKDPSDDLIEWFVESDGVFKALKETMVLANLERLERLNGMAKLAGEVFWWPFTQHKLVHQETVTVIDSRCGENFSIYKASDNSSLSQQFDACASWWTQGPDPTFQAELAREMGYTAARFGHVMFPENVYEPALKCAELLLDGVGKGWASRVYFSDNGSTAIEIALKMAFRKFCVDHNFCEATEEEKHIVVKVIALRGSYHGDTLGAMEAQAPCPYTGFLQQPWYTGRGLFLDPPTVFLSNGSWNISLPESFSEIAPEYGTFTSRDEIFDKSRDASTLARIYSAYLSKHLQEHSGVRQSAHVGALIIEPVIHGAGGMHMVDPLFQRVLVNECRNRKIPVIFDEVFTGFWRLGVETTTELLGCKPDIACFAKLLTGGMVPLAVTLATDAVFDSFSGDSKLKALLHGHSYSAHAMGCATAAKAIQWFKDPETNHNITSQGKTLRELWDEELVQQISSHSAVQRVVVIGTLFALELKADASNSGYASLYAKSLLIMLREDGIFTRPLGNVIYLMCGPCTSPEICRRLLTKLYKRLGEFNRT
Description: (§1) A pet-24 plasmid containing a DNA sequence encoding each identified variant mutant of BIO3-BIO1 derived from Arabidopsis thaliana from example 5 above, as shown in Table 13 below and as shown in full in SEQ ID NOs: 15 to 155, codon-optimised for expression in E. coli, with an N-terminal 6×His-tag and thrombin cleavage site and under control of a T7 promoter, and was synthesised by Twist Bioscience, in a similar manner to SEQ ID NO:311. These plasmids were then expressed in E. coli BL21 (DE3) bioA with 50 μg/mL kanamycin and 25 μg/mL chloramphenicol selection. Overnight cultures grown at 37° C. were used to inoculate 8×500 mL AIM in shake flasks at a ratio of 1:100. Cultures were grown at 37° C., 200 rpm for 3.5 hours and then overnight at 20° C. Cells were harvested by centrifugation for 30 minutes at 10 000 g. Cells were stored at −80° C. until extraction. 30 g of cell pellet from was thawed in 120 mL of IMAC buffer A (20 mM HEPES pH7.5, 25 mM imidazole, 500 mM sodium chloride, 0.15 mM pyridoxal phosphate, 0.5 mM TCEP, 1× complete Protease Inhibitor Tablet (Roche)). The resuspension was passed through a cell disrupter at 18 000 PSI and centrifuged at 50 000 g for 25 minutes at 4° C. The His-tagged BIO3-BIO1 protein was purified from the extract supernatant on an AKTA avant chromatography system (Cytiva) using a HisTrap FF column and eluted in IMAC buffer B ((20 mM HEPES pH7.5, 500 mM imidazole, 500 mM sodium chloride, 0.15 mM pyridoxal phosphate, 0.5 mM TCEP) followed by SEC using a HiLoad 26/60 Superdex200 column in SEC buffer (25 mM HEPES pH7.5, 150 mM sodium chloride, 0.15 mM pyridoxal phosphate, 0.5 mM TCEP). Protein concentration was measured and calculated using the absorbance at 280 nm. Extracts were diluted 1 in 4 and 10 uL was analysed by SDS PAGE.
(§2) To measure BIO3-BIO1 mutant enzyme activity in the presence of herbicide, herbicides were incubated with 20 μL of enzyme mix (100 mM EPPS pH 8.6, 0.1 mM pyridoxal phosphate, 0.1 mg/mL BSA, 50 nM BIO3-BIO1 enzyme) for 10 minutes at 20° C. in a well of a 96-well half-area black plate, followed by the addition of 20 μL of substrate mix (final concentration of 100 mM EPPS pH 8.6, 0.1 mM pyridoxal phosphate, 0.1 mg/mL BSA, 100 μM spermidine, 20 μM KAPA, 100 mM NaCO3) and further incubation for 75 minutes at 20° C. The reaction was terminated by the addition of 50 μL of derivatisation mix (final concentration of 250 mM borate NaOH pH 9.4, 3.6 mM o-phthalaldehyde, 7 mM β-mercaptoethanol, 17% (v/v) ethanol, 3.6% (v/v) methanol). The fluorescent product produced by the reaction of DAPA with o-phthalaldehyde and 7 mM β-mercaptoethanol was measured at 470 nm after excitation at 410 nm. The percentage inhibition was calculated as the activity in the presence of one of three concentrations of each herbicide compound A to M (note that the compounds labelled as A to M are identified hereinabove in the relevant section of the description) as a percentage of the activity in DMSO (Table 12 and 13). The percentage activity versus WT was also calculated and is shown in Table 13 and 14 (NT indicates mutation not tested in table 13, note that these mutations are tested at different compound concentrations for compounds L, M and C, and the results are shown in table 14).

[2] = molecular target: T2, Arabidopsis thaliana BIO3-BIO1 (BioDA) mutants (Arabidopsis thaliana, UniProt B0F481, A609V)
T2 construct: with the predicted N-terminal mitochondrial transit peptide removed; 6xHis-tag (N); thrombin cleavage site (N); made in house; host or cells: E. coli BL21 (DE3) bioA
T2 sequence (B0F481 23-833 A609V): as the sequence (B0F481 23-833 S509C) above, with C487S, A587V counted along it
Description: as §1, §2

[3] = molecular target: T3, Arabidopsis thaliana BIO3-BIO1 (BioDA) mutants (Arabidopsis thaliana, UniProt B0F481, V354T)
T3 construct: with the predicted N-terminal mitochondrial transit peptide removed; 6xHis-tag (N); thrombin cleavage site (N); made in house; host or cells: E. coli BL21 (DE3) bioA
T3 sequence (B0F481 23-833 V354T): as the sequence (B0F481 23-833 S509C) above, with V332T, C487S counted along it
Description: as §1, §2

[4] = molecular target: T4, Arabidopsis thaliana BIO3-BIO1 (BioDA) mutants (Arabidopsis thaliana, UniProt B0F481, F420I)
T4 construct: with the predicted N-terminal mitochondrial transit peptide removed; 6xHis-tag (N); thrombin cleavage site (N); made in house; host or cells: E. coli BL21 (DE3) bioA
T4 sequence (B0F481 23-833 F420I): as the sequence (B0F481 23-833 S509C) above, with F398I, C487S counted along it
Description: as §1, §2

[5] = molecular target: T5, Arabidopsis thaliana BIO3-BIO1 (BioDA) mutants (Arabidopsis thaliana, UniProt B0F481, S509E)
T5 construct: with the predicted N-terminal mitochondrial transit peptide removed; 6xHis-tag (N); thrombin cleavage site (N); made in house; host or cells: E. coli BL21 (DE3) bioA
T5 sequence (B0F481 23-833 S509E): as the sequence (B0F481 23-833 S509C) above, with C487E counted along it
Description: as §1, §2

[6] = molecular target: T6, Arabidopsis thaliana BIO3-BIO1 (BioDA) mutants (Arabidopsis thaliana, UniProt B0F481, V354E)
T6 construct: with the predicted N-terminal mitochondrial transit peptide removed; 6xHis-tag (N); thrombin cleavage site (N); made in house; host or cells: E. coli BL21 (DE3) bioA
T6 sequence (B0F481 23-833 V354E): as the sequence (B0F481 23-833 S509C) above, with V332E, C487S counted along it
Description: as §1, §2

[7] = molecular target: T7, Arabidopsis thaliana BIO3-BIO1 (BioDA) mutants (Arabidopsis thaliana, UniProt B0F481, F348C)
T7 construct: with the predicted N-terminal mitochondrial transit peptide removed; 6xHis-tag (N); thrombin cleavage site (N); made in house; host or cells: E. coli BL21 (DE3) bioA
T7 sequence (B0F481 23-833 F348C): as the sequence (B0F481 23-833 S509C) above, with F326C, C487S counted along it
Description: as §1, §2

[8] = molecular target: T8, Arabidopsis thaliana BIO3-BIO1 (BioDA) mutants (Arabidopsis thaliana, UniProt B0F481, G513L)
T8 construct: with the predicted N-terminal mitochondrial transit peptide removed; 6xHis-tag (N); thrombin cleavage site (N); made in house; host or cells: E. coli BL21 (DE3) bioA
T8 sequence (B0F481 23-833 G513L): as the sequence (B0F481 23-833 S509C) above, with C487S, G491L counted along it
Description: as §1, §2

[9] = molecular target: T9, Arabidopsis thaliana BIO3-BIO1 (BioDA) mutants (Arabidopsis thaliana, UniProt B0F481, DEL513-513)
T9 construct: with the predicted N-terminal mitochondrial transit peptide removed; 6xHis-tag (N); thrombin cleavage site (N); made in house; host or cells: E. coli BL21 (DE3) bioA
T9 sequence (B0F481 other isoform, or with tags, fused parts or gaps DEL513-513): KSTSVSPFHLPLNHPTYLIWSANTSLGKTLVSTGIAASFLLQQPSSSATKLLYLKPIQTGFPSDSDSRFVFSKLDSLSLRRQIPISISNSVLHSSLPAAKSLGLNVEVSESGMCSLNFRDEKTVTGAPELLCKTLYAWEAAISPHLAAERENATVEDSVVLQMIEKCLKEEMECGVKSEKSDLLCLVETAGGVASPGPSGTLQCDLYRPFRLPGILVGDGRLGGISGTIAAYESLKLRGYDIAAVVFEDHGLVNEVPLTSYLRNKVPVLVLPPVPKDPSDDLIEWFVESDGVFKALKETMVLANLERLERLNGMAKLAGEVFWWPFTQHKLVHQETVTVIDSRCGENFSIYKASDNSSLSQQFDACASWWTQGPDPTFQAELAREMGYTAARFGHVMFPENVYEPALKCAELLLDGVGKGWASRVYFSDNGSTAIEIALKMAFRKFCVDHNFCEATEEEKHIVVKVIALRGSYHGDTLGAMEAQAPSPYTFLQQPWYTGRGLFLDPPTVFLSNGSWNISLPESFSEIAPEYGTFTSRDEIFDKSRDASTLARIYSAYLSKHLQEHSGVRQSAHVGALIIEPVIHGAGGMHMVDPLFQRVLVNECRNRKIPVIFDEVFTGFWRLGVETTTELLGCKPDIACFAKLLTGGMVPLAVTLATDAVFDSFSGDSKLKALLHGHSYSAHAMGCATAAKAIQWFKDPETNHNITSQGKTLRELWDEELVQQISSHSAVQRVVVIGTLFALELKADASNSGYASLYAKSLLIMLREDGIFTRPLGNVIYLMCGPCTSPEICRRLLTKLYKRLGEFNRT
Description: as §1, §2

[10] = molecular target: T10, Arabidopsis thaliana BIO3-BIO1 (BioDA) mutants (Arabidopsis thaliana, UniProt B0F481, T512N)
T10 construct: with the predicted N-terminal mitochondrial transit peptide removed; 6xHis-tag (N); thrombin cleavage site (N); made in house; host or cells: E. coli BL21 (DE3) bioA
T10 sequence (B0F481 23-833 T512N): as the sequence (B0F481 23-833 S509C) above, with C487S, T490N counted along it
Description: as §1, §2

[11] = molecular target: T11, Arabidopsis thaliana BIO3-BIO1 (BioDA) mutants (Arabidopsis thaliana, UniProt B0F481, Y511Q)
T11 construct: with the predicted N-terminal mitochondrial transit peptide removed; 6xHis-tag (N); thrombin cleavage site (N); made in house; host or cells: E. coli BL21 (DE3) bioA
T11 sequence (B0F481 23-833 Y511Q): as the sequence (B0F481 23-833 S509C) above, with C487S, Y489Q counted along it
Description: as §1, §2

[12] = molecular target: T12, Arabidopsis thaliana BIO3-BIO1 (BioDA) mutants (Arabidopsis thaliana, UniProt B0F481, P510V)
T12 construct: with the predicted N-terminal mitochondrial transit peptide removed; 6xHis-tag (N); thrombin cleavage site (N); made in house; host or cells: E. coli BL21 (DE3) bioA
T12 sequence (B0F481 23-833 P510V): as the sequence (B0F481 23-833 S509C) above, with C487S, P488V counted along it
Description: as §1, §2

Row | SMILES | inhibition at 1 µM [1] | inhibition at 1 µM [2] | inhibition at 1 µM [3] | inhibition at 1 µM [4] | inhibition at 1 µM [5] | inhibition at 1 µM [6] | inhibition at 1 µM [7] | inhibition at 1 µM [8] | inhibition at 1 µM [9] | inhibition at 1 µM [10] | inhibition at 1 µM [11] | inhibition at 1 µM [12] | inhibition at 0.2 µM [1] | inhibition at 5 µM [1] | inhibition at 0.2 µM [2] | inhibition at 5 µM [2] | inhibition at 0.2 µM [3] | inhibition at 5 µM [3] | inhibition at 0.2 µM [4] | inhibition at 5 µM [4] | further results
1 | CCOC(=O)c1nn(-c2ccc3c(c2)OC(F)(F)C(F)(F)O3)c2cccc(C(C)=O)c2c1=O [Compound A, ethyl 5-acetyl-4-oxo-1-(2,2,3,3-tetrafluoro-1,4-benzodioxin-6-yl)cinnoline-3-carboxylate] | 0% | 5% | 61% | 0% | 6% | 25% | 0% | 89% | 29% | 21% | 21% | 1% |  |  |  |  |  |  |  |  | 
2 | CCn1c(C)c(-c2ccc(F)cc2F)c(=O)c(C(=O)O)c1-c1ccc(Cl)c(Cl)c1 [Compound C, 2-(3,4-dichlorophenyl)-5-(2,4-difluorophenyl)-1-ethyl-6-methyl-4-oxo-pyridine-3-carboxylic acid] | 65% | 11% | 56% | 55% | 87% | 0% | 0% | 92% | 90% | 74% | 97% | 21% | 30% | 88% | 0% | 58% | 0% | 92% | 0% | 88% | inhibition at 0.2 µM [5]: 57%; inhibition at 5 µM [5]: 97%; inhibition at 0.2 µM [6]: 0%; inhibition at 5 µM [6]: 39%; inhibition at 0.2 µM [7]: 0%; inhibition at 5 µM [7]: 0%; inhibition at 0.2 µM [8]: 69%; inhibition at 5 µM [8]: 98%; inhibition at 0.2 µM [9]: 69%; inhibition at 5 µM [9]: 98%; inhibition at 0.2 µM [10]: 29%; inhibition at 5 µM [10]: 93%; inhibition at 0.2 µM [11]: 78%; inhibition at 5 µM [11]: 98%; inhibition at 0.2 µM [12]: 0%; inhibition at 5 µM [12]: 79%
3 | CCn1c(Cn2ccc(C(F)(F)F)n2)cc(=O)c(C(=O)O)c1-c1ccc(Cl)c(Cl)c1 [Compound L, 2-(3,4-dichlorophenyl)-1-ethyl-4-oxo-6-[[3-(trifluoromethyl)pyrazol-1-yl]methyl]pyridine-3-carboxylic acid] |  |  |  |  |  |  |  |  |  |  |  |  |  |  |  |  |  |  |  |  | inhibition at 0.01 µM [2]: 0%; inhibition at 0.075 µM [2]: 0%; inhibition at 0.5 µM [2]: 0%; inhibition at 0.01 µM [4]: 0%; inhibition at 0.075 µM [4]: 1%; inhibition at 0.5 µM [4]: 62%; inhibition at 0.01 µM [7]: 0%; inhibition at 0.075 µM [7]: 0%; inhibition at 0.5 µM [7]: 29%; inhibition at 0.01 µM [8]: 58%; inhibition at 0.075 µM [8]: 88%; inhibition at 0.5 µM [8]: 97%; inhibition at 0.01 µM [9]: 31%; inhibition at 0.075 µM [9]: 30%; inhibition at 0.5 µM [9]: 54%; inhibition at 0.01 µM [12]: 0%; inhibition at 0.075 µM [12]: 0%; inhibition at 0.5 µM [12]: 52%
4 | CCn1c(-c2ccc(Cl)c(Cl)c2)c(C(=O)O)c(=O)c2cc(F)ccc21 [Compound M, 2-(3,4-dichlorophenyl)-1-ethyl-6-fluoro-4-oxo-quinoline-3-carboxylic acid] | 53% | 44% | 47% | 45% | 73% | 0% | 3% | 85% | 83% | 74% | 87% | 0% | 21% | 78% | 22% | 75% | 4% | 88% | 0% | 84% | inhibition at 0.2 µM [5]: 40%; inhibition at 5 µM [5]: 93%; inhibition at 0.2 µM [6]: 0%; inhibition at 5 µM [6]: 23%; inhibition at 0.2 µM [7]: 14%; inhibition at 5 µM [7]: 0%; inhibition at 0.2 µM [8]: 54%; inhibition at 5 µM [8]: 97%; inhibition at 0.2 µM [9]: 60%; inhibition at 5 µM [9]: 95%; inhibition at 0.2 µM [10]: 27%; inhibition at 5 µM [10]: 93%; inhibition at 0.2 µM [11]: 54%; inhibition at 5 µM [11]: 95%; inhibition at 0.2 µM [12]: 0%; inhibition at 5 µM [12]: 62%
